Measurements as given in patent US20150274777A1, “KETOAMIDE IMMUNOPROTEASOME INHIBITORS” (HOFFMANN-LA ROCHE INC., priority 2012, published 2015).

Assays:
β5i = target: T1, β5i (Homo sapiens, UniProt P20618+P28062); assay: Cell-Based Proteasome Activity/Selectivity Assay (Ramos cells), substrate (ANW)2Rh110; settings: highest concentration tested 20 μM, read-out: Ic50 ramos:ac-(anw)2-r110
T1 construct: protease activity associated with the proteasome complex in cultured cells; endogenous in cells; host or cells: Ramos cells
Source text: (§1) Cell-Based Proteasome Activity/Selectivity Assay
(§2) The Cell-Based Proteasome subunit activity/selectivity assay was a panel of 5 fluorogenic assays that independently measured the activity of β5c or β5i (chymotrypsin-like activity), β2c/2i (trypsin-like), and β1c or β1i (caspase-like) protease activity associated with the proteasome complex in cultured cells. Specifically, the following substrates were used for respective subunit activities: β1i: (PAL)2Rh110, β1c: (LLE)2 Rh110, β2c/2i: (KQL)2Rh110, β5c: (WLA)2Rh110, β5i: (ANW)2Rh110. The following procedure was followed:
(§3) Cell preparation: Plated 25 μl of Ramos cells (2×10^6/ml in DPBS) into half area plate (PerkinElmer Cat 6005569) to final 5×10^4 cells/well. Added 0.5 μl of 100×4-fold serial diluted test compounds or DMSO to each well. Highest concentration of compound tested was 20 μM, thus compound serial dilution started from […]. Incubated for 30 minutes at 37° C. Then equilibrated at room temperature for 15 minutes. Added 25 μl of 2× reaction mix consisting of 0.025% digitonin, 20 μM of each substrates and 0.5M sucrose in DPBS. Shaked for one minute @ 700 rpm. Incubated for 120 min at room temperature. Then read the plates with an Envision multilabel plate reader (PerkinElmer) with 500 nm excitation/519 nm emission.

β5c = target: T2, β5c (Homo sapiens, UniProt P20618+P28074); assay: Cell-Based Proteasome Activity/Selectivity Assay (Ramos cells), substrate (WLA)2Rh110; settings: highest concentration tested 20 μM
T2 construct: protease activity associated with the proteasome complex in cultured cells; endogenous in cells; host or cells: Ramos cells
Source text: as §1, §2, §3

β2c/2i = assay: Cell-Based Proteasome Activity/Selectivity Assay (Ramos cells), substrate (KQL)2Rh110; settings: highest concentration tested 20 μM
Source text: as §1, §2, §3

β1i = target: T3, β1i (Homo sapiens, UniProt P28065+P40306); assay: Cell-Based Proteasome Activity/Selectivity Assay (Ramos cells), substrate (PAL)2Rh110; settings: highest concentration tested 20 μM
T3 construct: protease activity associated with the proteasome complex in cultured cells; endogenous in cells; host or cells: Ramos cells
Source text: as §1, §2, §3

β1c = target: T4, β1c (Homo sapiens, UniProt P28072+Q99436); assay: Cell-Based Proteasome Activity/Selectivity Assay (Ramos cells), substrate (LLE)2 Rh110; settings: highest concentration tested 20 μM
T4 construct: protease activity associated with the proteasome complex in cultured cells; endogenous in cells; host or cells: Ramos cells
Source text: as §1, §2, §3

[1] = tested on: IP10 level in PBMCs stimulated with CpG Type A; assay: PBMC IP-10 Assay; type: cell-based; settings: CpG Type A 2.5 μM
Protocol: PBMCs were isolated from whole blood as follows: Blood was collected in a sterile environment in heparinized tubes. Blood was diluted with an equal volume PBS/2% FCS and 30 ml of this mixture was added to ACCUSPIN tubes containing 15 ml Histopaque-1077 already centrifuged at 800 g for 30 seconds and warmed up at room temperature. The tubes were then centrifuged at 800 g for 20 minutes at room temperature with no brake. The mononuclear band, just above the polyethylene frit, was removed by Pasteur pipet. These mononuclear cells were washed three times with sterile PBS, counted, and resuspended in RPMI 1640 supplemented with 10% heat inactivated fetal calf serum, 10 mM HEPES, 1 mM sodium pyruvate, penicillin (50 U/ml), streptomycin (50 μg/ml) and glutamine (2 mM) to approximately 1.5×10^6/ml. Approximately 2×10^5 cells/well were plated in 96 well tissue culture plates (BD Falcon 353072), and preincubated 60 mi/37° C. with a titration of compounds, in a final concentration of 1% DMSO. Cells were then stimulated with CpG Type A (Invivogen, Cat #tlrl-2216; ODN 2216) at a final concentration of 2.5 μM. Cells were incubated overnight, and supernatants were removed. PBMC viability of cells remaining in the well was measured with ATPlite luminescence assay (Perkin-Elmer) per the manufacturer's instructions. Luminescence was measured on the Perkin-Elmer Envision, using the luminescence filter. IP10 level was measured with CXCL10/IP10 AlphaLISA kit (Perkin-Elmer) per the manufacturer's instructions, except halving all volumes. Fluorescence was measured on the Envision Multilabel plate reader, using the AlphaScreen standard settings.

SMILES	IC50 (β5i) [nM]	IC50 (β5c) [nM]	IC50 (β2c/2i) [µM]	IC50 (β1i) [nM]	IC50 (β1c) [µM]	EC50 [1] [nM]
C[C@H](NC(=O)OCc1ccccc1)C(=O)N[C@@H](Cc1c[nH]c2ccccc12)C(=O)N[C@@H](Cc1ccccc1)C(=O)C(=O)NCc1ccccc1 [Example 16, {(S)-1-[(S)-1-((S)-1-Benzyl-2-benzylcarbamoyl-2-oxo-ethylcarbamoyl)-2-(1H-indol-3-yl)-ethylcarbamoyl]-ethyl}-carbamic acid benzyl ester]	17	926	> 20	274	18.3	1330
COc1ccc(C[C@H](NC(=O)[C@H](C)NC(=O)OCc2ccccc2)C(=O)N[C@@H](Cc2ccccc2)C(=O)C(=O)NCc2ccccc2)cc1 [Example 17, {(S)-1-[(S)-1-((S)-1-Benzyl-2-benzylcarbamoyl-2-oxo-ethylcarbamoyl)-2-(4-methoxy-phenyl)-ethylcarbamoyl]-ethyl}-carbamic acid benzyl ester]	7	988	> 20	417	> 20	939
C[C@H](NC(=O)C1Cc2ccccc2C1)C(=O)N[C@@H](Cc1c[nH]c2ccccc12)C(=O)N[C@@H](Cc1ccccc1)C(=O)C(=O)NCc1ccccc1 [Example 18, Indan-2-carboxylic acid {(S)-1-[(S)-1-((S)-1-benzyl-2-benzylcarbamoyl-2-oxo-ethylcarbamoyl)-2-(1H-indol-3-yl)-ethylcarbamoyl]-ethyl}-amide]	5	173	7.02	441	3.28	672
COc1ccc(C[C@H](NC(=O)[C@H](C)NC(=O)C2Cc3ccccc3C2)C(=O)N[C@@H](Cc2ccccc2)C(=O)C(=O)NCc2ccccc2)cc1 [Example 19, Indan-2-carboxylic acid {(S)-1-[(S)-1-((S)-1-benzyl-2-benzylcarbamoyl-2-oxo-ethylcarbamoyl)-2-(4-methoxy-phenyl)-ethylcarbamoyl]-ethyl}-amide]	3	55	> 20	234	> 20	695
CC1=C(C(=O)N[C@@H](C)C(=O)N[C@@H](CCS(C)(=O)=O)C(=O)N[C@@H](Cc2ccccc2)C(=O)C(=O)NCc2ccccc2)Cc2ccccc21 [Example 20, 3-Methyl-1H-indene-2-carboxylic acid {(S)-1-[(S)-1-((S)-1-benzyl-2-benzylcarbamoyl-2-oxo-ethylcarbamoyl)-3-methanesulfonyl-propylcarbamoyl]-ethyl}-amide]	15	157	> 20	738	> 20	1640
COc1ccc(C[C@H](NC(=O)[C@H](C)NC(=O)c2cc(C)on2)C(=O)N[C@@H](Cc2ccccc2)C(=O)C(=O)NCc2ccccc2)cc1 [Example 21, 5-Methyl-isoxazole-3-carboxylic acid {(S)-1-[(S)-1-((S)-1-benzyl-2-benzylcarbamoyl-2-oxo-ethylcarbamoyl)-2-(4-methoxy-phenyl)-ethylcarbamoyl]-ethyl}-amide]	7	765	> 20	210	> 20	3490
C[C@H](NC(=O)CN1CCOCC1)C(=O)N[C@@H](Cc1c[nH]c2ccccc12)C(=O)N[C@@H](Cc1ccccc1)C(=O)C(=O)NCc1ccccc1 [Example 22, (S)—N-Benzyl-3-{(S)-3-(1H-indol-3-yl)-2-[(S)-2-(2-morpholin-4-yl-acetylamino)-propionylamino]-propionylamino}-2-oxo-4-phenyl-butyramide]	124	3300	> 20	1100	> 20	5780
COC[C@H](NC(=O)C1Cc2ccccc2C1)C(=O)N[C@@H](Cc1ccc(OC)cc1)C(=O)N[C@@H](Cc1ccccc1)C(=O)C(=O)NCc1ccccc1 [Example 23, Indan-2-carboxylic acid {(S)-1-[(S)-1-((S)-1-benzyl-2-benzylcarbamoyl-2-oxo-ethylcarbamoyl)-2-(4-methoxy-phenyl)-ethylcarbamoyl]-2-methoxy-ethyl}-amide]	1	5	> 20	97	7.32	356
CC(C)C[C@H](NC(=O)[C@H](C)NC(=O)C1Cc2ccccc2C1)C(=O)N[C@@H](Cc1ccccc1)C(=O)C(=O)NCc1ccccc1 [Example 24, Indan-2-carboxylic acid {(S)-1-[(S)-1-((S)-1-benzyl-2-benzylcarbamoyl-2-oxo-ethylcarbamoyl)-3-methyl-butylcarbamoyl]-ethyl}-amide]	5	272	5.71	441	7.05	433
COc1ccc(C[C@H](NC(=O)[C@H](C)NC(=O)C2=C(C)c3ccccc3C2)C(=O)N[C@@H](Cc2ccccc2)C(=O)C(=O)NCc2ccccc2)cc1 [Example 25, 3-Methyl-1H-indene-2-carboxylic acid {(S)-1-[(S)-1-((S)-1-benzyl-2-benzylcarbamoyl-2-oxo-ethylcarbamoyl)-2-(4-methoxy-phenyl)-ethylcarbamoyl]-ethyl}-amide]	9	846	> 20	> 20000	> 20	1080
COc1ccc(C[C@H](NC(=O)[C@@H](NC(=O)C2Cc3ccccc3C2)C2CC2)C(=O)N[C@@H](Cc2ccccc2)C(=O)C(=O)NCc2ccccc2)cc1 [Example 26, Indan-2-carboxylic acid {(S)-[(S)-1-((S)-1-benzyl-2-benzylcarbamoyl-2-oxo-ethylcarbamoyl)-2-(4-methoxy-phenyl)-ethylcarbamoyl]-cyclopropyl-methyl}-amide]	4	15	0.38	181	2.38	203
COc1ccc(C[C@H](NC(=O)C2(NC(=O)C3Cc4ccccc4C3)CC2)C(=O)N[C@@H](Cc2ccccc2)C(=O)C(=O)NCc2ccccc2)cc1 [Example 27, Indan-2-carboxylic acid {1-[(S)-1-((S)-1-benzyl-2-benzylcarbamoyl-2-oxo-ethylcarbamoyl)-2-(4-methoxy-phenyl)-ethylcarbamoyl]-cyclopropyl}-amide]	40	4520	> 20	5060	12.9	4870
COc1ccc(C[C@H](NC(=O)C2(NC(=O)OCc3ccccc3)CC2)C(=O)N[C@@H](Cc2ccccc2)C(=O)C(=O)NCc2ccccc2)cc1 [Example 28, {1-[(S)-1-((S)-1-Benzyl-2-benzylcarbamoyl-2-oxo-ethylcarbamoyl)-2-(4-methoxy-phenyl)-ethylcarbamoyl]-cyclopropyl}-carbamic acid benzyl ester]	294	5110	> 20	4740	> 20	2790
COc1ccc(C[C@H](NC(=O)[C@H](C)NC(=O)c2cnccn2)C(=O)N[C@@H](Cc2ccccc2)C(=O)C(=O)NCc2ccccc2)cc1 [Example 29, Pyrazine-2-carboxylic acid {(S)-1-[(S)-1-((S)-1-benzyl-2-benzylcarbamoyl-2-oxo-ethylcarbamoyl)-2-(4-methoxy-phenyl)-ethylcarbamoyl]-ethyl}-amide]	275	2060	11.9	218	5.62	4170
